Source: patent US9289464B2, “Method for diagnosing and treating NIS-expressing carcinomas and metastases” (priority 2002, dated 2016)

What was measured:
[1] = target: T1, NIS (Homo sapiens, UniProt Q92911); assay: Blocking experiments: iodide uptake in presence of KClO4; assay type: cell-based; conditions: 30 mM KClO4; MCF-7 treated with tRA with or without CIG
T1 construct: NIS gene expression is increased synergistically by treatment of CIG in combination with retinoic acid in the breast cancer cell line MCF-7; endogenous in cells; host or cells: MCF-7 (DSMZ ACC 115)
T1 sequence (Q92911 1-643): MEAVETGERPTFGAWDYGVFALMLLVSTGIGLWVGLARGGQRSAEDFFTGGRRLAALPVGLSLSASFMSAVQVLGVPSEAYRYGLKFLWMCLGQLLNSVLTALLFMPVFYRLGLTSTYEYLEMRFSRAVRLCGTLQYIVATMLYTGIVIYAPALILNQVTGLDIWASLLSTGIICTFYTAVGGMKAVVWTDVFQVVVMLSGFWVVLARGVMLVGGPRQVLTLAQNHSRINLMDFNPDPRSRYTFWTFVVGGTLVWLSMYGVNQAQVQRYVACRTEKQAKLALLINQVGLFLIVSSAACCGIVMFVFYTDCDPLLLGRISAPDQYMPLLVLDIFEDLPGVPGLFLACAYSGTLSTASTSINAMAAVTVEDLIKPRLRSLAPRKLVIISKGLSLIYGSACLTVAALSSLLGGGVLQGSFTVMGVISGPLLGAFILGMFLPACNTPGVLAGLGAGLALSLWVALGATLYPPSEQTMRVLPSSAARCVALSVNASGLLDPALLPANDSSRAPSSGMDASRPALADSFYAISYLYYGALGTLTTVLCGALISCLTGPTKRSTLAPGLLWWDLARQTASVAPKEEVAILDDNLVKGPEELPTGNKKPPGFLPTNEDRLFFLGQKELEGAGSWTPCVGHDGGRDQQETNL
Description: Cells were cultured in plates with 24 wells (24 Well Plates) for 24 h. The cells were then washed and subsequently the substances to be tested (ciglitazone, trans-retinoic acid with or without KClO4) were added in fresh medium. For the iodide uptake, the cells were first washed twice in prewarmed RPMI 1640 medium without FCS, and then incubated in 1 ml of RPMI 1640 without FCS which comprised 0.1 μCi/ml Na^125I (specific activity: 10 mCi/mmol, Amersham Biosciences, Freiburg, Germany) and 10 μM NaI/well for 1 h.
(§1) After the incubation, the cells were washed twice with ice-cold RPMI 1640 and lysed in 2% SDS-PAGE sample buffer (0.0625 M Tris-HCl, pH 6.8) with 1 U/μl Benzonase (Merck KgaA, Darmstadt, Germany). The ^125I uptake was measured in a gamma counter. An aliquot of each sample was employed to determine the protein concentration using the DC protein determination kit from Bio-Rad (Munich, Germany) in order thus to achieve standardization with different numbers of cells.
In order to test the specificity of NIS-mediated iodide uptake, the experiments described in the previous exemplary embodiment were also carried out in the presence of 30 mM KClO4, the strongest specific NIS inhibitor.

[2] = tested on: breast cancer cell line MCF-7; assay: Iodide uptake assay (Na125I) in MCF-7 cells; assay type: cell-based, human
Description: (§2) All the cell lines used herein were purchased from the Deutschen Sammlung von Mikroorganismen und Zelikulturen (DSMZ; Brunswick, Germany, DSMZ No.: MCF-7 (ACC 115)). MCF-7 cells were cultured in RPMI 1640 medium with 10% FCS (fetal calf serum) and addition of 1× nonessential amino acids, 0.01 mg/ml bovine insulin and 5% penicillin/streptomycin. The HeLa cells were cultured in RPMI 1640 medium. All the reagents for the cell culture were, unless indicated otherwise, purchased from Invitrogen, Karlsruhe, Germany. Cells were cultured in plates with 24 wells (24 Well Plates) for 24 h. The cells were then washed and subsequently the substances to be tested (ciglitazone, trans-retinoic acid with or without KClO4) were added in fresh medium. […] After the incubation, the cells were washed twice with ice-cold RPMI 1640 and lysed in 2% SDS-PAGE sample buffer (0.0625 M Tris-HCl, pH 6.8) with 1 U/μl Benzonase (Merck KgaA, Darmstadt, Germany). The ^125I uptake was measured in a gamma counter. An aliquot of each sample was employed to determine the protein concentration using the DC protein determination kit from Bio-Rad (Munich, Germany) in order thus to achieve standardization with different numbers of cells.

[3] = tested on: cervical carcinoma cell line HeLa; assay: Iodide uptake assay (Na125I) in HeLa cells; assay type: cell-based; conditions: 1 μM tRA with or without 5 μM CIG, 48 h
Description: as §2

[4] = tested on: HEK-293 cells; assay: Iodide uptake assay in HEK-293 cells (analogous experiment); assay type: cell-based; conditions: results not shown
Description: as §1, with “Cells were cultured in plates with 24 wells (24 Well Plates) for 24 h. The cells were then washed and subsequently the substances to be tested (ciglitazone, trans-retinoic acid with or without KClO4) were added in fresh medium. […] After” for “After”

[5] = tested on: NIS mRNA; assay: NIS mRNA concentration in treated cells; assay type: cell-based; conditions: cells treated with tRA
[6] = tested on: prostate cancer cell line LNCaP; conditions: cited from earlier work
[7] = tested on: choriocarcinoma cell line JEG-3; conditions: cited from earlier work
[8] = tested on: non-small-cell lung cancer cell line A549; conditions: cited from earlier work
[9] = tested on: non-small-cell lung cancer cell line H460; conditions: cited from earlier work

SMILES: [K+].[O-][Cl+3]([O-])([O-])[O-] [KClO4]
- effect on iodide uptake of breast cancer cells (NIS blocking) [1]: inhibited

SMILES: CC1(COc2ccc(CC3SC(=O)NC3=O)cc2)CCCCC1 (stereo not shown) [CIG, ciglitazone]
- effect on iodide uptake (in words) ([2]; 1 μM tRA and/or 5 μM CIG): no effect

SMILES: CC1=C(/C=C/C(C)=C/C=C/C(C)=C/C(=O)O)C(C)(C)CCC1 [tRA, trans-retinoic acid]
- time at which maximum iodide uptake was reached ([2]; 1 μM tRA): 48 h
- induction of iodide uptake (in words) [3]: no induction of iodide uptake
- induction of iodide uptake (in words) [4]: same results
- concentration of NIS mRNA [5]: distinctly increased
- induction of iodide uptake [6]: does not induce iodide uptake
- induction of iodide uptake [7]: does not induce iodide uptake
- induction of iodide uptake [8]: does not induce iodide uptake
- induction of iodide uptake [9]: does not induce iodide uptake
